Laboratory results published in EP4385495A1, “NANOSYSTEMS FOR THE ENCAPSULATION OF THERAPEUTIC AGENTS” (National Technical University of Athens, priority 2022, dated 2024).

Experiments:
[1] = target: T1, soybean lipoxygenase (LOX) (Glycine max, UniProt P08170); experiment: Soybean lipoxygenase inhibition assay in vitro; format: biochemical
T1 sequence (P08170 1-839): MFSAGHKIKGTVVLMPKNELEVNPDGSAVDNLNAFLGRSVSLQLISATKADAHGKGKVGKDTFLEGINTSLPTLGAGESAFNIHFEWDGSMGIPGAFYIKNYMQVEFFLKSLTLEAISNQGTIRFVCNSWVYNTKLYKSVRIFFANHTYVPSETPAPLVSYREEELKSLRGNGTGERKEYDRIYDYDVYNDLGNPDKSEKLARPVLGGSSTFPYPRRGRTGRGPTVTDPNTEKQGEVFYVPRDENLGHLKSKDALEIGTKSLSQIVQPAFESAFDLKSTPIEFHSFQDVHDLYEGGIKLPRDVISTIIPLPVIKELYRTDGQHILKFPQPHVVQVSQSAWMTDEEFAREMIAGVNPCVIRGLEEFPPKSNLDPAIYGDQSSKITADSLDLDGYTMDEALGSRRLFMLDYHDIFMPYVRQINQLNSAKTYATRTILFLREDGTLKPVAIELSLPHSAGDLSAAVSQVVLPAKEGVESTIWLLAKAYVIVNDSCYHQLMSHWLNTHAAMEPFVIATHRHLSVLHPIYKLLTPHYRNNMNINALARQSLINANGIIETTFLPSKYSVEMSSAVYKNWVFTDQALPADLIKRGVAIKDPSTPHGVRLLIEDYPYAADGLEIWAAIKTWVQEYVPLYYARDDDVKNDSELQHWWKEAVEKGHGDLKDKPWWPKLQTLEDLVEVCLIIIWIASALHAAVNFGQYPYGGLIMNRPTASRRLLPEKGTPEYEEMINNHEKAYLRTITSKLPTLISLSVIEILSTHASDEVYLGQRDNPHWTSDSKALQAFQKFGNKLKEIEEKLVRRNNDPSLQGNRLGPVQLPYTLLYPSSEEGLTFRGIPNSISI
Method: The soybean lipoxygenase (LOX) test is a representative assay for anti-inflammatory activity since LOX is implicated in the inflammatory cascade. LOXs contain a "non-heme" iron per molecule in the catalytic active site as high-spin Fe^+2 in the native state and high-spin Fe^+3 in the activated state. […] The inhibitory activity of several LOX inhibitors, such as phenolic derivatives, can be attributed to their chelating capacity to Fe^+3. In brief, two reaction mixtures are prepared in UV cuvettes for each sample, the first reaction mixture contains LOX solution (dissolved in Tris buffer, pH 9) and the sample under examination, whereas the second reaction mixture also contained LLA solution (dissolved in 0.9% NaCl). Both reaction mixtures were measured at room temperature at 234 nm. The inhibition of LOX was measured in the presence of the same level of DMSO, which served as control.
Table 2: Anti-inflammatory potential of the samples expressed as % inhibition of LOX

MMP-13 = MMP-13 ELISA in secretions of TNFα-stimulated chondrocytes; format: cell-based, human; conditions: for Mean % relative MMP-13 secretion (72h): co-treatment with TNFα, normalized to negative control (TNFα only)
From the text: Matrix Mettaloproteinase 13 (MMP-13) is the main culprit in the destabilization of the anabolic/catabolic balance in the articular joint. MMP-13 […] balance towards catabolism and collagen II degradation which aggravates the OA pathology and is an enzyme that is secreted by chondrocytes in the extracellular environment. […] A decrease in MMP-13 levels is desirable, correlates with less degradation of cartilage and is widely used in the OA research field as a histopathological marker to evaluate amelioration of OA cellular pathology in the joint following an intervention. Finding Nanoparticles that can reduce MMP-13 levels in the assay is a promising lead for a favorable effect in a pre-clinical animal model in vivo. […] The results in Table 6 are the mean relative values from at least 3 independent repetitions of the experiments. Table 6. MMP-13 ELISA results as normalized values relative to negative control (NC, TNFα-stimulated cells without nanosystems) from 3 independent experiments. The standard deviations are omitted for simplicity. Samples' coding: S1=Naringin pure compound, S2=Naringin encapsulated in PLA nanoparticles [PLA[NAR]], S3=Naringin encapsulated in PLA nanoparticles coated with chitosan CS[PLA[NAR]], and S4=Blank PLA nanoparticles coated with chitosan, CS[PLA[---]].

[2] = Body weight in collagenase-induced osteoarthritis rat model; format: in vivo, Wistar rats
Method: In order to understand the anti-inflammatory and antioxidant potential of the nanoparticles of the invention in vivo an experimental animal model of osteoarthritis (OA) was established. The OA lesions were caused by matrix degradation of articular cartilage using enzymatic means, such as collagenase type-II. Following the induction of osteoarthritis, the studied nanoparticles were administered for 8 weeks in which period the morphological and behavioral changes were measured and finally histological analysis of the articular cartilage samples concluded the in vivo study.
Healthy adult male Wistar rats (150-200 g) were used for the study, with water and food ad libitum, at a constant temperature of 22°C and controlled lighting (12 h light/12 h dark cycle).
As far as the dispersion procedure of the injectables is concerned, all the natural compounds were dissolved in saline solution, whereas the studied nanoparticles were mechanically grinded in a mortar and pestle set with saline solution and Tween 20 (2% w/v) and heated at 36 °C before each treatment. There were six treatments administered every 10 days. At the end of the experiment rats were euthanized and both knees were collected for histological analysis.
Rats were anesthetized with chloral hydrate. The right knee joints of Group I were injected with normal saline solution and served as a control. Animals from the groups II, III, IV, V, VI, VII were injected with collagenase type II (Clostridium histolyticum). Collagenase (125 collagen digestion unit/mg) was dissolved in saline, and it was injected intra-articularly into the right knee joint twice on days 1 and 4 of the experiment (Al-Saffar, F., H. Ganabadi and S. Fakurazi. Collagenase and sodium iodoacetate-induced experimental osteoarthritis model in Sprague dawley rats. Asian J. Sci. Res. 2: 1-13, 2009). The left knees of all animals were left untreated as a control.
Changes in body weight and knee diameter were measured on the 1st, 4th,11th,21st,31st,41st,51st, 61st, 71st day before every injection. Knee diameter was measured using a digital caliper. […] A change in body weight is also measured as one of the parameters to assess the course of the disease in the OA animal models.

CCK-8 viability assay = format: cell-based; conditions: human, primary human chondrocytes; read-out: Mean % relative viability
Method: b) The viability of human primary chondrocytes was evaluated following incubation with increasing concentrations of either the pure Naringin (S1) or the nanosystems (Samples S2 and S3) at 2-10-50µM of encapsulated Naringin (1:5 serial dilutions) for 72h (higher concentrations were not used because the nanosystems become insoluble and aggregates sediment on the cell monolayer). For S2 this corresponded to 6,4 µg/ml (for 2 µM of Naringin), 32 µg/ml (for 10 µM of Naringin) and 158 µg/ml (for 50 µM of Naringin) respectively, of total NP concentration. For S3 (CS[PLA[NAR]]) the total NP concentrations to provide the same µM of encapsulated Naringin were 14,4 / 72 / 360 µg/m). As control for the nanosystems, a blank PLA nanoparticle preparation coated with chitosan (S4) was used, at the same µg/ml polymer concentration like the ones used to achieve the 2-10-50µM range for Naringin (the difference being that the blank contains no Naringin). Finally, the blank S4 was used at the 14,4/72/360 µg/ml concentration range (1:5 serial dilutions). Following incubation, the CCK-8 viability kit was used according to manufacturer's instructions (Sigma, 96992-500TESTS-F). Macroscopical and microscopical observation confirmed the proper complete solubility and dispersion of the Nanoparticles. Importantly, healthy cell morphology was observed (spindle-like attached cells with several processes) with concomitant absence of undissolved material.
Table 5. Effect of the natural products and the nanosystems on the relative cell viability of primary human chondrocytes. Measurements obtained using the CCK-8 viability kit. Values normalized to positive control (PC; set to 100; arbitrary unit). Samples' coding: S1= pure Naringin, S2=Naringin encapsulated in PLA nanoparticles [PLA[NAR]], S3=Naringin encapsulated in PLA nanoparticles coated with chitosan CS[PLA[NAR]], and S4=Blank PLA nanoparticles coated with chitosan, CS(PLA[---]].

C[C@@H]1O[C@@H](O[C@H]2[C@H](Oc3cc(O)c4c(c3)O[C@H](c3ccc(O)cc3)CC4=O)O[C@H](CO)[C@@H](O)[C@@H]2O)[C@H](O)[C@H](O)[C@H]1O [S1 [NAR], Naringin]
inhibition at 25 µM ([1]; 25 µM, 24h): 7.1%
inhibition at 50 µM ([1]; 50 µM, 24h): 21.2%
inhibition at 100 µM ([1]; 100 µM, 24h): 44.6%
LOX inhibition at 48 and 72 h compared with 24 h (in words) ([1]; 48 and 72 h): no significant difference
Mean % relative MMP-13 secretion (72h) (MMP-13; 10 µM Naringin (free or encapsulated)): 110,57%
Mean % relative MMP-13 secretion (72h) (MMP-13; 50 µM Naringin (free or encapsulated)): 113.28%
Mean % relative MMP-13 secretion (72h) (MMP-13; 200 µM): 102,77%
decrease in MMP-13 (in words) (MMP-13; TNFα-stimulated chondrocytes): did not give a detectable decrease
Body Weight (BW) ([2]; 1st injection CO/saline (before treatment)): 247 g
Body Weight (BW) ([2]; 1st treatment, 10 mg/kg (S1, ibuprofen i.p.; nanoparticles i.a.), every 10 days): 239 g
Body Weight (BW) ([2]; 2nd injection CO/saline (before treatment)): 236 g
Body Weight (BW) ([2]; 2nd treatment, 10 mg/kg (S1, ibuprofen i.p.; nanoparticles i.a.)): 247 g
Body Weight (BW) ([2]; 3rd treatment, 10 mg/kg (S1, ibuprofen i.p.; nanoparticles i.a.)): 276 g
Body Weight (BW) ([2]; 4th treatment, 10 mg/kg (S1, ibuprofen i.p.; nanoparticles i.a.)): 294 g
Body Weight (BW) ([2]; 5th treatment, 10 mg/kg (S1, ibuprofen i.p.; nanoparticles i.a.)): 317 g
Body Weight (BW) ([2]; 6th treatment, 10 mg/kg (S1, ibuprofen i.p.; nanoparticles i.a.)): 326 g
% Changes in Body Weight (BW) ([2]; 11 days (before treatment)): -3,2%
% Changes in Body Weight (BW) ([2]; 40 days (half of experimental protocol)): 19,0%
% Changes in Body Weight (BW) ([2]; 70 days (end of experimental protocol)): 34,8%
Body Weight (BW) ([2]; final, 10 mg/kg (S1, ibuprofen i.p.; nanoparticles i.a.)): 333 g
viability at 72 h, 10 µM (CCK-8 viability assay): 136%
viability at 72 h, 50 µM (CCK-8 viability assay): 130%
viability at 72 h, 200 µM (CCK-8 viability assay): 111%
